Laboratory results from patent publication US20240382558A1, “PHARMACEUTICAL COMPOSITION FOR PREVENTING OR TREATING INTERSTITIAL CYSTITIS/BLADDER PAIN SYNDROME” (priority 2022, published 2024).

Assays:
[1] = system: IC/BPS model rats; assay: Pain threshold by electronic von Frey filament on lower abdomen in IC/BPS model rats; type: in vivo, rat; conditions: IC+R group vs IC group; day 5 after administration; average of three measurements; FIG. 4
Description: Sham, IC, and IC+R groups were prepared as in Example 1. On day 5 after administration, the rats were placed in a metabolic cage with a wire mesh bottom and allowed to acclimate for 10 minutes, and the lower abdomen was stimulated with increasing pressure using an electronic von Frey filament (BIO-EVF, Bioseb, Vitrolles, France). The pressure at which an escape response was observed was measured as the pain threshold. This measurement was repeated three times with a 5-minute interval, and the average was calculated. The pain threshold increased in the IC+R group compared to the IC group (FIG. 4), confirming an ameliorating trend of pain.

[2] = system: IC/BPS model rats; assay: Cystometry (intravesical pressure and urination volume) in HCl-induced IC/BPS model rats; type: in vivo, rat
Description: Through the catheter, 250 μL of saline (Sham group) or 250 μL of 0.1 M HCl (IC group) was instilled into the bladder and held for 1 minute, and then the bladder was washed twice with saline. The Sham and IC groups were each divided into two groups (n=7-8/group), and 200 μL of saline or 200 μL of RGDS peptide solution (500 mg/L saline solution, MedChemExpress) was administered intraperitoneally. On day 7 after administration, a polyethylene catheter was inserted and retained in the apex of the bladder, and a pressure transducer (MLT0699, ADInstruments Ltd, Dunedin, New Zealand), PowerLab 4/26 (ADInstruments Ltd, Dunedin New Zealand) were connected. A syringe pump (YSP-101, YMC Co., Ltd., Kyoto, Japan) was connected to the pressure transducer to measure intravesical pressure and urination volume while continuously instilling 40 μL/min saline solution into the bladder. The pressure at the urination event peak on the cystometrogram was defined as the maximum intravesical pressure, the peak interval as the urination interval, the pressure immediately after the peak as the basal intravesical pressure, the pressure immediately before the peak as the threshold pressure for urination, and the urination volume at the peak as urine volume per urination event.
A similar study to Example 1 was conducted, except that the RGDS peptide used in Example 1 was replaced with 400 μL of cilengitide solution (6.75 g/L saline solution, Tokyo Kasei). In the cilengitide-administered group, the urination interval was prolonged compared to the group that received instillation of saline (FIG. 3), confirming that frequent urination was ameliorated.

[3] = among Sham, Sham+R, IC, IC+R groups, 200 μL RGDS peptide solution (500 mg/L) intraperitoneally, day 7

Compound | pain threshold (pressure at which an escape response was observed) [1] | urination interval ([2]; IC+R group vs IC group given saline, 200 μL RGDS peptide solution (500 mg/L saline) intraperitoneally, day 7 after administration, FIGS. 1 and 2) | basal intravesical pressure [2, 3] | maximum intravesical pressure [2, 3] | threshold pressure for urination [2, 3] | urination interval ([2]; cilengitide-administered IC group vs saline group, 400 μL cilengitide solution (6.75 g/L saline), FIG. 3)
RGDS [RGDS peptide] | increased | significantly prolonged | did not differ among all groups | did not differ among all groups | did not differ among all groups | 
CC(C)[C@H]1C(=O)N[C@@H](CCCN=C(N)N)C(=O)NCC(=O)N[C@@H](CC(=O)O)C(=O)N[C@H](Cc2ccccc2)C(=O)N1C [cilengitide] |  |  |  |  |  | prolonged
